Laboratory results from patent US8415321B2, “Nucleoside derivatives for treatment of Caliciviridae infections, including Norovirus infections” (priority 2008, dated 2013).

Test system: Norwalk GI.1 replicon
Assay: Norwalk GI.1 replicon assay (in vitro anti-viral activity)
Type: cell-based
Conditions: Norovirus
Description: The Norwalk GI.1 strain (Chang, K. O., et al. (2006) Virology 353:463-473), the GII-4 strain replicon, as well other Norovirus replicons can be used in assays to determine the in vitro antiviral activity of the compounds described herein, or other compounds or compound libraries. In some embodiments, the replicon systems are subgenomic and therefore allow evaluation of small molecule inhibitors of non-structural proteins. This can provide the same benefits to Norovirus drug discovery that Hepatitis C replicons contributed to the discovery of therapeutics useful for treatment of that virus (Stuyver, L. J., et al. (2006) Antimicrob. Agents Chemother. 47:244-254).

CC1(O)C(O)[C@@H](CO)O[C@H]1n1ccc(N)nc1=O (some centres unmarked) [2′-C-methyl-cytosine] showed an EC50 of 2.1 µM and an EC90 of 8.9 µM.
